# Data from US20180153837A1, “METHODS OF IMPROVING PHYSIOLOGICAL RESPONSES RELATED TO POST-TRAUMATIC STRESS DISORDER THROUGH DIETARY SUPPLEMENTATION” (Natural Alternatives International, Inc., priority 2015, published 2018).
# Where two headings read alike, the source gives them in different places.
# Assays:
# brain carnosine [1] = details: for Brain Carnosine Concentrations, Amygdala / Brain Carnosine Concentrations, Cortex / Brain Carnosine Concentrations, Hippocampus / Brain Carnosine Concentrations, Hypothalamus / Brain Carnosine Concentrations, Olfactory bulb / Brain Carnosine Concentrations, Thalamus: 30 days BA, mean ± SD
# Protocol: (§1) Adult male Sprague-Dawley rats weighing 200-250 gm (n=122) were habituated to housing conditions for at least seven days. All animals were housed four per cage in a vivarium with stable temperature and a reversed 12-h light/dark cycle, with unlimited access to food and water. β-alanine was provided with glucomannan in a powder form in an 80:20 blend. Rats were provided with 100 mg of the powder per kg of body mass (a total of 30 mg of powder was dissolved in 25 ml of water). PL treated rats were provided with the vehicle (glucommanan) at the same relative dose. Animals were handled once daily. All testing was performed during the dark phase in dim red light conditions. This study was performed according to the principles and guidelines of the National Institute of Health Guide for the Care and Use of Laboratory Animals. All treatment and testing procedures were approved by the Animal Care Committee of the Ben-Gurion University of the Negev, Israel.
# Rats were randomly assigned to one of four treatment groups (n=30 or 31 per group):
# (§2) Following the 7-day acclimation period in which all rats received a normal powder diet, they were randomized into the four groups. Following 30-days of either normal diet or β-alanine supplemented diet the rats were exposed to either the PSS or sham protocol. All behavioral tests were conducted 7 days following the PSS or sham protocol, and the rats were then sacrificed 24 hours later and brains were removed. Diets were maintained until the end of the study.
# (§3) Following the 30-day supplementation regimen, animals were exposed to the PSS protocol. The PSS protocol consisted of placing the experimental animal on well-soiled cat litter (in use by the cat for 2 days, sifted for stools) for 10 minutes in a closed environment. Control animals were exposed to fresh, unused litter for the same amount of time. The situational reminder consisted of placing animals on fresh, unused cat litter for 15 minutes.
# Carnosine concentrations in brain homogenates were determined by LC-MS-MS analysis.
# Brains were partially thawed on ice and six brain regions were sampled: cerebral cortex, hypothalamus, hippocampus, amygdala, olfactory bulb, and thalamus. Each sample was weighed and transferred into individual vials for further homogenization.
# Brain samples were homogenized in saline (0.9% NaCl; 100 mg/l ml) supplemented with 1 mM EDTA, using Polytron Homogenizer. Homogenates were stored at −20°±5° C. prior to LC/MS/MS analysis. L-Carnosine purchased from Sigma was used to prepare standards for the calibration curve (in ppb). Samples were diluted ×5 prior to analysis. The concentration read from the standard curve was multiplied by the dilution factor and converted to ppm units.
# [2] = β-alanine taken as a free amino acid; cited from earlier work
# BDNF [3] = details: mice, β-alanine supplemented diet; cited from earlier work
# corticosterone = system: corticosterone
# Protocol: as §1
# Following the 7-day acclimation period in which all rats received a normal powder diet, they were randomized into the four groups. Following 30-days of either normal diet or β-alanine supplemented diet the rats were exposed to either the PSS or sham protocol. […]
# Plates were read at 450 nm. […] All samples were measured in duplicate.
# mice = details: β-alanine supplemented diet; cited from earlier work
# brain carnosine [4] = details: mice, β-alanine supplemented diet; cited from earlier work
# [5] = system: animal model of post-traumatic stress disorder (PTSD)
# Protocol: as §1, §2, §3
# BDNF [6] = system: BDNF
# Protocol: as §1, §2
# [7] = PSS+BA: rats exposed to PSS, Day 8 post-PSS
# [8] = UNEX+BA: rats not exposed to PSS
# [9] = PSS+PL compared with PSS+BA (and UNEX groups), 7 days after PSS
smiles,measurement,setting,value
"NCCC(=O)O [BA, β-alanine]","Brain Carnosine Concentrations, Amygdala",brain carnosine [1]; [7],"3.52 ± 3.84 a, c mg · L^−1"
same,"Brain Carnosine Concentrations, Cortex",brain carnosine [1]; [7],"6.55 ± 4.90 a, c mg · L^−1"
same,"Brain Carnosine Concentrations, Hippocampus",brain carnosine [1]; [7],"5.58 ± 4.39 a, c mg · L^−1"
same,"Brain Carnosine Concentrations, Hypothalamus",brain carnosine [1]; [7],"4.54 ± 4.04 a, c mg · L^−1"
same,"Brain Carnosine Concentrations, Olfactory bulb",brain carnosine [1]; [7],"13,109 ± 9,773 mg · L^−1"
same,"Brain Carnosine Concentrations, Thalamus",brain carnosine [1]; [7],"5.97 ± 4.48 a, c mg · L^−1"
same,"Brain Carnosine Concentrations, Amygdala",brain carnosine [1]; [8],2.34 ± 3.04 mg/L
same,"Brain Carnosine Concentrations, Cortex",brain carnosine [1]; [8],3.78 ± 4.47 a mg · L^−1
same,"Brain Carnosine Concentrations, Hippocampus",brain carnosine [1]; [8],3.75 ± 3.98 a mg · L^−1
same,"Brain Carnosine Concentrations, Hypothalamus",brain carnosine [1]; [8],2.60 ± 2.85 mg/L
same,"Brain Carnosine Concentrations, Olfactory bulb",brain carnosine [1]; [8],"8,309 ± 6,887 mg · L^−1"
same,"Brain Carnosine Concentrations, Thalamus",brain carnosine [1]; [8],3.99 ± 5.10 a mg · L^−1
same,Brain carnosine concentrations in the hippocampus and other brain sections,brain carnosine [1]; animals supplemented with BA compared to PL,significantly greater
same,influence on carnosine concentrations in the olfactory bulb,brain carnosine [1]; supplemented versus normal diet,did not appear to have any influence
same,duration of flushing/tingling of the skin,[2],less than 60 minutes
same,concentration of BDNF in the hippocampus,BDNF [3],increase the concentration of BDNF
same,corticosterone concentrations,"corticosterone; PSS+BA compared with unexposed animals, p<0.001",significantly higher corticosterone concentrations
same,corticosterone concentrations,"corticosterone; exposed rats normal diet versus exposed rats BA, p=0.837",No significant differences
same,activity in the open arms of an elevated plus-maze test,mice,significantly greater activity
same,brain carnosine concentrations in the cerebral cortex and hypothalamus,brain carnosine [4],increase brain carnosine concentrations
same,startle amplitude,"[5]; PSS+BA compared with PSS+PL, p=0.085",tended to have a lower startle amplitude
same,EPM scores,[5]; PSS+BA compared with UNEX+BA,comparable scores to UNEX+BA
same,startle amplitude,[5]; PSS+BA compared with unexposed animals (normal diet p<0.001; BA p=0.0001),significantly greater
same,immobility upon cue,[5]; PSS+BA compared with unexposed animals (normal diet p=0.01; BA p=0.003),significantly greater immobility upon cue
same,"freezing, difference","[5]; PSS+BA less than PSS+PL, p=0.148",approximately 6%
same,"freezing, significance of difference","[5]; PSS+BA versus PSS+PL, p=0.148",not statistically different
same,freezing upon cue-exposure (percentage of total time),"[5]; PSS+BA, Day 8",34.8%
same,number of open arm entries in the EPM,[5]; [9],significantly less
same,time in the open arms of the EPM,[5]; [9],significantly less time in the open arms
same,Anxiety index,"[5]; PSS+PL compared with PSS+BA, p<0.05",higher
same,startle habituation score,"[5]; animals exposed to PSS regardless of diet versus unexposed groups, p<0.001",significantly lower habituation score
same,lower startle response,"[5]; exposed + β-alanine versus exposed not supplemented, p=0.085",19%
same,lower freezing response,"[5]; exposed + β-alanine versus exposed not supplemented, p=0.148",15%
same,"BDNF expression, CA1 subregion","BDNF [6]; PSS+BA compared with PSS+PL, p<0.001",significantly greater than exposed rats fed a normal diet
same,"BDNF expression, DG subregion","BDNF [6]; PSS+BA compared with PSS+PL, p=0.011",greater
same,"BDNF expression, CA1 subregion",BDNF [6]; PSS+BA compared with unexposed animals,significantly lower than unexposed animals
same,"BDNF expression, DG subregion","BDNF [6]; PSS+BA compared with unexposed animals (p=0.765, p=0.818)",not statistically different
same,BDNF expression in unexposed rats,BDNF [6]; UNEX+BA versus UNEX+PL,did not appear to increase BDNF expression
